Source: US20160120802A1, “ORALLY-DISINTEGRATING OSELTAMIVIR TABLET AND METHOD FOR PREPARING THE SAME” (priority 2013, published 2016)

System: pigeons
Assay: Pigeons vomiting model
Conditions: intragastric, equivalent to 30 mg oseltamivir per kg
Protocol: 1. Experimental Animal: Healthy Pigeons (Both Males and Females were Operable), 350±50 g of Weights, Common Grades, and Purchased from a Breeding Base.
70 healthy pigeons were randomly divided into 7 groups and adaptively fed with normal diets for 1 week before the experiment. Diets were prohibited within 4 hrs before the experiment, the room temperature was maintained at between 22 and 24° C., and the feeding environment was kept clean and well ventilated. The pigeons were administered with drugs according to the following groups, the administration dosage corresponded to 30 mg oseltamivir per kg of the pigeon's weight, or the equivalent amount of the starch.
Contrast group A, one group, administered with the raw material of oseltamivir with a dosage equivalent to 30 mg of oseltamivir per kg of the pigeon's weight.
Contrast group B, one group, administered with the polyacrylic acid resin IV with a dosage equivalent to 30 mg of the starch per kg of the pigeon's weight.
Contrast group D, one group, administered with the commercial oseltamivir phosphate capsules manufactured by Roche with a dosage equivalent to 30 mg of oseltamivir per kg of the pigeon's weight.
Observation indexes: latent periods of vomiting (the period from the administration to the first vomiting), vomiting times (occurrences of the vomiting after the drug administration, each occurrence of the vomiting refers to the duration from neck stretching, mouth opening, shrugging, and abdominal contraction of the pigeons to recovery of the quiet state of the pigeons), and vomiting frequencies (referring to the times of neck stretching, mouth opening, shrugging, and abdominal contraction of the pigeons).
The pigeons in each group were taken drugs by intragastric administration with a dosage equivalent to 30 mg of oseltamivir per kg of the pigeon's weight. The latent periods of vomiting (min) after the intragastric administration, as well as the vomiting times and the vomiting frequency in 5 hrs after the intragastric administration were recorded.
In each group, the number of the vomiting pigeons (n) was calculated. For the vomiting pigeons (including vomiting with vomitus and dry vomiting in the absence of vomitus), the latent period of vomiting (min, x±s), the average vomit times, and the average vomit frequencies were calculated, and results were listed in the following table 2.

## CCOC(=O)C1=CC(OC(CC)CC)C(NC(C)=O)C(N)C1 (stereo not shown) [Contrast group A]
  Note (kind of vomiting): Seven times of vomiting
Vomiting pigeons, x ± s
  Latent period for vomiting: 18.9 ± 5.4 min
Within 5 hrs
  Average vomiting times (within 5 hrs): 11.1
Within 5 hrs, x ± s
  Vomiting frequencies: 15.8 ± 2.1 times
